# Data as given in patent US6635629B2, “3-nitrogen-6,7-dioxygen steroids and uses related thereto” (Inflazyme Pharmaceuticals Ltd., priority 2000, dated 2003).
# Where “and” joins values, the source holds several entries; their conditions need not be identical. Equal values may be shown once.
# Legend:
# [1] = tested on: sensitized Brown Norway rats; test: Ovalbumin-induced accumulation of inflammatory cells in lung lavage fluid of sensitized Brown Norway rats; assay type: in vivo, rat; settings: p.o.
# Method: The ability of a compound to inhibit the allergen-induced accumulation of inflammatory cells such as eosinophils and neutrophils in the lavage fluid obtained from sensitized animals is indicative of that compound's anti-asthma activity. […] The test is conducted as follows.
# Male Brown Norway rats are sensitized to ovalbumin by single intraperitoneal injection of 1 mg ovalbumin adsorbed to 100 mg A(OH)3 (alum) in 1 ml sterile saline (saline control rats receive only sterile saline) on day 1, and allowed to sensitize until day 21. […] Rats are challenged with 0.5% ovalbumin in saline generated using a Devillbis nebulizer for 60 min on day 21.
# Forty-eight hrs after challenge, animals are sacrificed with an overdose of intraperitoneally-delivered sodium pentobarbitol and the lungs are lavaged with cold 2×7 ml phosphate buffered saline. The recovered lavage fluid is placed on ice. The bronchoalveolar lavage fluid is centrifuged and the supernatant removed. The pellet is resuspended in phosphate buffered saline at 4° C. Cytospins are prepared and stained for differentiation and enumeration of cell types.
# Test compound was administered in 300 μl corn oil (Tables 7 and 8) or water (Table 9), which were used as vehicles. Control animals received 300 μl corn oil or water alone, i.e., no drug. […] A negative value in Table 7, 8, or 9 indicates an exacerbation of the effect over the control animal.
# Jurkat clone E6.1 cells = test: Antigen-induced (anti-CD3 mAb) calcium flux in Jurkat clone E6.1 cells; assay type: cell-based; settings: 20 μM; anti-CD3 mAb 4 μg/mL; Fura 2AM
# From the text: Elevation of cytoplasmic calcium concentration is a common and crucial event which follows the activation of many types of cell surface receptors. Increases in intracellular calcium that occur following agonist activation of inositol lipid hydrolysis are the results of calcium release from the endoplasmic reticulum and the influx of calcium through the plasma membrane. Increases in cytosolic calcium concentration are involved in many important cellular responses in the inflammatory process including adhesion, motility, gene expression, proliferation, and degranulation. Changes in intracellular calcium centrations can affect both short and long term cellular responses. An assay method to evaluate a test compound's impact on calcium flux is provided as follows.
# The resulting supernatants are discarded and each pellet is washed in 10 mL HBSS. Cell suspensions are accumulated and centrifuged for 5 minutes at 900 RPM to form a cell pellet. The resulting supernatant is discarded and the pellet is resuspended in HBSS at 1×10^7 cells/mL. The cell suspension is transferred to a 20 mm petri dish and incubated at 37° C., 5% CO2 for 20 minutes.
# One volume of Fura 2AM is mixed to one volume of detergent Pluronic F127. Cells are labeled with 4 μL of probe solution to each mL of cell suspension. The petri dish is wrapped in aluminum foil to protect from light and placed on a plate shaker for 30 minutes at room temperature.
# The following steps are done in the laminar flow hood with the fluorescent lights turned off. The petri dish is removed from the shaker and the labeled cell suspension is transferred to a 15 mL conical tube and washed twice with HBSS as above. The cell pellet is resuspended in 12 mL HBSS and left wrapped in foil for 30 minutes at room temperature. The labeled cell suspension is aliquoted (100 μL/well) into a Dynex 96 well white opaque tissue culture plate. […] Selected compounds were tested for dose related activity. Test samples and activator (anti—CD3 mAb at final concentration of 4 μg/mL, PharMingen) are added manually (50 μL), such that the minimum time to acquire the first data point after stimulation is approximately 30 seconds. The calcium influx response to anti-CD3 mAb is measured as an “end point” assay. The entire plate is read in 100 seconds using a kinetic of 1 second per well.
# The plate is read before the addition of anti-CD3 to monitor non-specific effect of samples/drugs. Fluorescence emission is measured at 510 nm with excitation alternating between 340 and 380 every second using an excitation/emission filter pair. Data from these dual wavelengths are represented as a ratio of 2 excitations wavelengths. This ratio is independent of intracellular dye and cell concentrations, enabling real comparison between experiments.
# [2] = Metabolic stability in human liver S9 fractions; assay type: in vitro ADME; settings: 10 μM
# From the text: The therapeutic effectiveness of a test compound can be often directly related to its metabolic stability in vivo. The majority of known, marketed drugs are metabolized by a group of enzymes known as P450 enzymes. The S9 fraction of human liver contains all the P450 enzymes and also cytoplasmic enzymes that may be involved in the metabolism of new chemical entities. Metabolism in vitro using human S9 fractions is a standard assay to evaluate relative metabolic stability of new compounds. The test is performed as follows.
# Reagents are thawed on ice and combined to make up a Master Mix as follows: Potassium phosphate (100 mM, pH 7), G6P (0.25 mM), G6PDH (2 U/ml), NADPH (1 mM), UDP (0.25 mM), APPS (0.25 mM), and S9 fraction (2 mg/ml). A volume of 498 μl of the Master mix is dispensed into each microcentrifuge tube. A volume of 2 μl of 2.5 mM test compound (final concentration of 10 μM) is dispensed into the center of the lid of the appropriate tube, and the lids gently closed to prevent mixing. Synchronous combination of test compound and master mix is achieved by simultaneous ten times inversion of the tubes, which are then incubated at 37° C. and shaken at 150 rpm for the appropriate incubation times. While incubation is in progress, all 0 time samples are mixed individually by three times inversion followed by the immediate addition of 500 μl ice cold acetonitrile with three times inversion to stop the reaction. Immediately after each 15 minutes and 30 minutes incubation is complete, ice cold acetonitrile is added to each tube and the tubes mixed by three times inversion. All sample tubes are incubated at −80° C. for a minimum of 15 minutes, thawed and remixed by inversion. Aliquots of 650 μl are transferred to Chromatographic Specialties micro-spin filter system tubes (0.2 μm nylon membrane, C618505) and centrifuged at 13,000 rpm for 48 seconds. The sample filtrates are stored at −80° C.
# Sample filtrates are analyzed on LCMS, and percent remaining after 15 and 30 minute incubation is calculated relative to the 0 minute incubation.
# The metabolic stability of various compounds are summarized in Table 10 as the percent remaining after 15 or 30 minutes incubation with human liver S9 fractions.
# [3] = tested on: rat mast cell line (RBL-2H3); test: Antigen-induced release of hexosaminidase from a rat mast cell line (RBL-2H3); assay type: cell-based; settings: inhibition of DNP-HSA antigen-induced hexosaminidase release; tested at 0.3, 3, 10 and 30 μM; read-out: Hex IC50
# Method: The anti-allergic effects of a compound of the present invention was evaluated by measuring its effect on antigen-induced secretion of hexosaminidase from a passively sensitized rat mast cell line. The ability of a test compound to inhibit the release of mast cell granule contents, e.g., histamine and hexosaminidase, is indicative of the anti-allergy and/or anti-asthma activity of the compound. Hexosaminidase is released from the mast cell granule along with histamine and other mediators during antigen challenge. The test is performed as follows.
# RBL-2H3 cells are grown in culture and passively sensitized for 1 hour at 37° C. to dinitrophenol (DNP) using anti-human-DNP (IgE). Cells are incubated with test compound for 30 minutes at 37° C. and stimulated with 0.5 μg/ml DNP-HSA (antigen) for 30 minutes. Aliquots of the supernatant are removed and used to measure the amount of hexosaminidase released during challenge with the antigen. […] The effect of each test compound is determined as a percentage of the antigen-induced response (minus background release) obtained in the presence of DMSO alone. These values are used to determine the degrees of inhibition of antigen-induced hexosaminidase release from the cells.
# [4] = 5 mg/kg/day for 4 days, corn oil vehicle, relative to control animals
# [5] = 1 mg/kg/day for 4 days, corn oil vehicle, relative to control animals
# [6] = 37° C., 15 min incubation, relative to 0 minute incubation
# [7] = 37° C., 30 min incubation, relative to 0 minute incubation
# [8] = 0.1 mg/kg, 4 days qd, water vehicle
# [9] = 0.3 mg/kg, 4 days qd, water vehicle
# [10] = 1 mg/kg, 4 days qd, water vehicle
Compound,Calcium (% inhibition at 20 μM) (Jurkat clone E6.1 cells) [%],"% remaining after 15 min ([2]; human, s9, 15 min, pH 7) [%]","% remaining after 30 min ([2]; human, s9, 30 min, pH 7) [%]",IC50 [3] [µM],"% inhibition of eosinophils [1, 5] [%]","% inhibition of lymphocytes [1, 5] [%]","% inhibition of neutrophils [1, 5] [%]","% remaining after 15 min [2, 6]","% remaining after 30 min [2, 7]",further results
CC=C1CCC2C3C(CC[C@]12C)[C@@]1(C)CCC(N)CC1[C@@H](O)[C@@H]3O (stereo partly shown) [Compound 49],26.8,93 ± 6,85 ± 8,11,–,–,–,–,–,"% inhibition of eosinophils [1, 4]: 52%; % inhibition of lymphocytes [1, 4]: 73%; % inhibition of neutrophils [1, 4]: 36%"
CC(F)=C1CCC2C3C(CC[C@]12C)[C@@]1(C)CCC(N)CC1[C@@H](O)[C@@H]3O (stereo partly shown) [Compound 64],–,104 ± 4,88 ± 5,–,–,–,–,–,–,"% inhibition of eosinophils [1, 4]: 62%; % inhibition of lymphocytes [1, 4]: 81%; % inhibition of neutrophils [1, 4]: 70%"
COC(=O)C=C1CCC2C3C(CC[C@]12C)[C@@]1(C)CCC(N)CC1[C@@H](O)[C@@H]3O (stereo partly shown) [Compound 69],–,73 ± 24,63 ± 6,–,–,–,–,–,–,–
C=C1CCC2C3C(CC[C@]12C)[C@@]1(C)CCC(N)CC1[C@@H](OC)[C@@H]3OC (stereo partly shown) [Compound 79],9.1,67 ± 6,61 ± 14,18.4,–,–,–,–,–,–
CCC1CCC2C3C(CC[C@]12C)[C@@]1(C)CCC(N)CC1[C@@H](O)[C@@H]3O (stereo partly shown) [Compound 96],–,92 ± 19,94 ± 21,–,–,–,–,–,–,"% inhibition of eosinophils [1, 4]: −9%; % inhibition of lymphocytes [1, 4]: 19%; % inhibition of neutrophils [1, 4]: 40%"
CCC1CCC2C3C(CC[C@]12C)[C@@]1(C)CCC(N)CC1[C@@H](O)[C@@H]3O (stereo partly shown) [Compound 97],43.0,94 ± 10,89 ± 12,9.3,–,–,–,–,–,"% inhibition of eosinophils [1, 4]: 40%; % inhibition of lymphocytes [1, 4]: 56%; % inhibition of neutrophils [1, 4]: 52%"
C=C1CCC2C3C(O)C(O)C4CC(NCc5cccnc5)CCC4(C)C3CCC12C.Cl.Cl (stereo not shown) [Compound 107],11.6,–,–,17.2,−122,−28,23,–,–,–
C=C1CCC2C3C(CC[C@]12C)[C@@]1(C)CC[C@@H](NC(=O)Nc2ccccc2)CC1[C@@H](O)[C@@H]3O (stereo partly shown) [Compound 137],–,93 ± 31,71 ± 17,–,–,–,–,–,–,–
C=C1CCC2C3C(CC[C@]12C)[C@@]1(C)CC[C@@H](NC(=O)NCCC)CC1[C@@H](O)[C@@H]3O (stereo partly shown) [Compound 138],9.0,–,–,15,−52,33,35,–,–,–
CC1(C)CCC2=C1CCC1C2[C@@H](O)[C@H](O)C2C[C@@H](N)CC[C@]12C (stereo partly shown) [Compound 139],26.3,–,–,10.3,–,–,–,100%,100%,–
CC1(C)CCC2=C1CCC1C2C(O)C(O)C2CC(NCc3ccc(F)c(F)c3)CCC21C.Cl (stereo not shown) [Compound 141],36.3,–,–,9.4,–,–,–,100 ± 9%,26 ± 4%,–
COc1ccc(CNC2CCC3(C)C(C2)C(O)C(O)C2C4=C(CCC23)C(C)(C)CC4)cc1OC.Cl (stereo not shown) [Compound 142],13.8,–,–,15.9,−131,−42,−1,80 ± 11%,55 ± 2%,–
CCC1(C)CCC2=C1CCC1C2C(O)C(O)C2CC(N)CCC21C.Cl (stereo not shown) [Compound 143],22.6,–,–,8.6,–,–,–,100% and 100 ± 3%,100% and 99 ± 10%,"% inhibition of eosinophils [1, 8]: 28%; % inhibition of lymphocytes [1, 8]: −43%; % inhibition of neutrophils [1, 8]: 57%; % inhibition of eosinophils [1, 9]: 29%; % inhibition of lymphocytes [1, 9]: −37%; % inhibition of neutrophils [1, 9]: 25%; % inhibition of eosinophils [1, 10]: 48%; % inhibition of lymphocytes [1, 10]: −22%; % inhibition of neutrophils [1, 10]: 64%"
CCC1(C)CCC2=C1CCC1C2C(O)C(O)C2CC(NCc3ccccc3)CCC21C.Cl (stereo not shown) [Compound 146],41.7,–,–,9,8,−27,24,82 ± 6%,63 ± 9%,–
CCC1(C)CCC2=C1CCC1C2C(O)C(O)C2CC(NCc3ccccc3)CCC21C.Cl (stereo not shown) [Compound 147],36.3,–,–,18.1,40,36,58,–,–,–
